From ChEMBL document CHEMBL1121705, “Synthesis and angiotensin-converting enzyme inhibitory activity of 3-(Mercaptomethyl)-2-oxo-1-pyrrolidineacetic acids and 3-(Mercaptomethyl)-2-oxo-1-piperidineacetic acids” (J Med Chem, 1981)

Target: Angiotensin-converting enzyme (Homo sapiens, UniProt P12821)
Test: Concentration required for 50% inhibition of Angiotensin I converting enzyme; call rule not given here
Type: protein assay, Cavia porcellus

Angiotensin-converting enzyme, sequence (P12821 whole entry): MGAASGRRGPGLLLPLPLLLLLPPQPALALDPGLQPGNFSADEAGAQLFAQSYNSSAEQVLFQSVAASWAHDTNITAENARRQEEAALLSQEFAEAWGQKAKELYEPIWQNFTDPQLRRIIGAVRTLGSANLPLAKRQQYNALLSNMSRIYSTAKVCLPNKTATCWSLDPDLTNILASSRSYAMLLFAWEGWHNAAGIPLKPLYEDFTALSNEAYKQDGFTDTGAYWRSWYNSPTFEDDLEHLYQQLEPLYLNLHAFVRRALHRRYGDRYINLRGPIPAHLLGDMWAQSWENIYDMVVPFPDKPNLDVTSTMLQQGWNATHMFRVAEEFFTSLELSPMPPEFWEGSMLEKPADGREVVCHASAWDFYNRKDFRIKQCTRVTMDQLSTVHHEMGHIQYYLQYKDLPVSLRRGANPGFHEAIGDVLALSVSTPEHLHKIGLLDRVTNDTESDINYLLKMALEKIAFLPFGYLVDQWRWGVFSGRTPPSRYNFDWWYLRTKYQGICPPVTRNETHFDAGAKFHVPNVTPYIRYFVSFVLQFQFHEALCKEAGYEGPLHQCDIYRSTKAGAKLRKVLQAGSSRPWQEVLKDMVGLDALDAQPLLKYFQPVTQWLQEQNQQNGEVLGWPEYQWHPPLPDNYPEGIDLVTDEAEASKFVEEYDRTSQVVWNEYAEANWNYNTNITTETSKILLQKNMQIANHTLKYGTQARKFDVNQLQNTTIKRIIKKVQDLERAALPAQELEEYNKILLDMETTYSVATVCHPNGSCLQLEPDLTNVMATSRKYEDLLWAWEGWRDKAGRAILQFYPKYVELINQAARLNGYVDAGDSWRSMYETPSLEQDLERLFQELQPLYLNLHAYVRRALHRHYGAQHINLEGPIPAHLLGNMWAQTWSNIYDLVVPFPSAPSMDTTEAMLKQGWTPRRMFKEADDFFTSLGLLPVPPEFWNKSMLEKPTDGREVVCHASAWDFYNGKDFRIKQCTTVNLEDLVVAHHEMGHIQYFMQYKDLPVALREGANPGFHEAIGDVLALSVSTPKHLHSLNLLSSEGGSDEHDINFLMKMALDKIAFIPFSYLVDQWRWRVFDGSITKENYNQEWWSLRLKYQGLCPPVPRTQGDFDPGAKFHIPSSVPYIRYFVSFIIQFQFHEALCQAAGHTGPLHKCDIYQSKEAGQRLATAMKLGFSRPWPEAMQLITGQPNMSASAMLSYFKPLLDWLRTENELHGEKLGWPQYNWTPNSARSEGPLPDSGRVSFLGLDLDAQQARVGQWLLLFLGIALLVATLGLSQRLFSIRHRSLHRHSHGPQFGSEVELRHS

IC50: Not Active
SMILES: CC(=O)SCC1CCCN(CC(N)=O)C1=O (stereo unspecified)
